Assay results as given in patent US20030161893A1, “PTPase inhibitors and methods of using the same” (priority 2001, published 2003).

How the values were obtained:
PRL-3 = biological target: T1, PRL-3 (Homo sapiens, UniProt O75365); assay: In vitro PTPase assay, recombinant PRL-3; type: biochemical; conditions: DiFMUP, comparable conditions
T1 construct: cDNAs of human PRL-1, PRL-2 and PRL-3 coding region were derived by RT-PCR from H9 cells; made in house; host or cells: DH5a bacteria (E. coli)
Description: Sodium stibogluconate, suramin, sodium orth ovanadate and GST fusion protein of SHP-1 have been described previously (Pathak et al., J. Imumol. 167, 3391 (2001)). Meglumine antimonate was obtained from Aventis. cDNAs of human PRL-1, PRL-2 and PRL-3 coding region were derived by RT-PCR from H9 cells (Safai, et al., Lancet 1, 1438 (1984)) and inserted in frame into the pGEX vector. cDNA of PRL-1R86 was generated by recombinant DNA technique using PRL-1 cDNA as template following established procedures (Jiao, et al., Mol. Cell. Biol. 16, 6985 (1996)). GST fusion proteins of the PRL phosphatases were prepared from DH5a bacteria transformed with the pGEX fusion protein constructs as described previously (Yi, et al., Mol. Cell. Biol. 12, 836 (1992)). cDNAs encoding the PRLs tagged at the N-termini with the Flag epitope (Castrucci, et al., J. Virol. 66, 4647 (1992)) were generated via recombinant DNA technique, sequenced to confirm their identities and cloned into the pBabepuro vector (Yang, et al., Blood 91, 3746 (1998)). Anti-Flag monoclonal antibody (M2, Sigma) was purchased from a commercial source. A synthetic phosphotyrosine peptide (Arg-Arg-Leu-Ile-Glu-Asp-Ala-Gle-Tyr-Ala-Ala-Arg-Gly (SEQ ID NO: 3), wherein the tyrosine is phosphorylated; UBI) and DiFMUP (6, 8-difluoro-4-methylumbelliferyl phosphate, Molecular Probes) were purchased as substrates for PTPase assays.
In vitro PTPase assays were used to determine the effects of compounds on recombinant PTPases, following established procedures using a synthetic phosphotyrosine peptide or DiFMUP as the substrate (Pathak et al., J. Imumol. 167, 3391 (2001)). Briefly, individual PTPases (0.1 μg/reaction) in 50 μL of PTPase buffer (50 mM Tris, pH 7.4) were incubated at 22° C. for 10 minutes or as indicated in the absence or presence of inhibitory compounds. Substrates (0.2 mM phosphotyrosine peptide) were then added and allowed to react at 22° C. for 18 hrs. PTPase activity of individual reactions was measured by adding 100 μL of malachite green solution (UBI) and then quantifying the amounts of free phosphate cleaved by the PTPase from the peptide substrate by spectrometry (OD660 nm). PTPase assays using DiFMUP as a substrate were conducted following a previously described procedure (Matter, et al., Biochem. Biophys. Res. Comm. 283, 1061 (2001)). Relative PTPase activities were calculated based on the formula: (PTPase activity in the presence of an inhibitory compound/PTPase activity in the absence of the compound)×100%. To assess the reversibility of PTPase inhibition, GST fusion proteins of the PTPases bound on glutathione beads (Pharmacia) were pre-incubated with cold Tris buffer (50 mM Tris, pH 7.0) or Tris buffer containing the inhibitor at 4° C. for 30 minutes. The beads were then washed three times in cold Tris buffer or not washed prior to subjecting to in vitro PTPase assays.

SHP-1 = biological target: T2, SHP-1 (Mus musculus, UniProt P29351); assay: In vitro PTPase assay, GST/SHP-1 fusion protein; type: biochemical
T2 construct: made in house
Method: In vitro PTPase activities were measured using the commercial protein tyrosine phosphatase assay kit (Upstate Biotechnology, Inc. (“UBI”)) following established procedure known to one of skill in the art. […] 100 μl of Malachite Green solution was added and incubated for 5 minutes, and the absorbance at 660 nm was measured after 5 minutes.
The beads were then either subjected to in vitro PTPase assays or washed 3 times in Tris buffer then subjected to in vitro PTPase assays.
Briefly, individual PTPases (0.1 μg/reaction) in 50 μL of PTPase buffer (50 mM Tris, pH 7.4) were incubated at 22° C. for 10 minutes or as indicated in the absence or presence of inhibitory compounds. […] […] […] Relative PTPase activities were calculated based on the formula: (PTPase activity in the presence of an inhibitory compound/PTPase activity in the absence of the compound)×100%. To assess the reversibility of PTPase inhibition, GST fusion proteins of the PTPases bound on glutathione beads (Pharmacia) were pre-incubated with cold Tris buffer (50 mM Tris, pH 7.0) or Tris buffer containing the inhibitor at 4° C. for 30 minutes. The beads were then washed three times in cold Tris buffer or not washed prior to subjecting to in vitro PTPase assays.

Baf3 cells = assay: Baf3 cell proliferation assay; type: cell-based, murine
Method: The murine hematopoietic cell line Baf3 was maintained in RPMI 1640 medium supplemented with 10% fetal calf serum (FCS) and murine IL-3 (20 units/ml) as described previously in Damen et al., J. Biol. Chem. 270, 23402 (1995). Human myeloid cell line TF-1 was maintained in RPMI 1640 supplemented with 10% FCS and 40 ng/ml of recombinant human GM-CSF as described previously in Thomassen et al., Clin. Immunol. 95, 85 (2000). For cell proliferation assays, cells were washed in 10% FCS medium twice, resuspended in 10% FCS medium, incubated at 37° C. for 16 hours, and then cultured at 37° C. in 10% FCS medium containing various amounts of cytokines, sodium stibogluconate, or potassium antimonyl tartrate for 3-6 days as indicated. The cell numbers in proliferation assays were determined by an MTT assay or by microscopic cell counting as indicated.

PTP1B = biological target: T3, PTP1B (Homo sapiens, UniProt P18031); assay: In vitro PTPase assay, GST/PTP1B fusion protein; type: biochemical; conditions: 1-1,000 μg/ml
T3 construct: purchased Upstate Biotechnology Inc. (Lake Placid, N.Y.)
Method: In vitro PTPase activities were measured using the commercial protein tyrosine phosphatase assay kit (Upstate Biotechnology, Inc. (“UBI”)) following established procedure known to one of skill in the art. This assay measures the in vitro dephosphorylation of a synthetic phosphotyrosine peptide of the sequence Arg-Arg-Leu-Ile-Glu-Asp-Ala-Gle-Tyr-Ala-Ala-Arg-Gly, wherein the tyrosine is phosphorylated (SEQ ID NO: 3). Briefly, 0.01 μg of GST/PTPase fusion proteins was incubated in 50 μl of Tris buffer (10 mM Tris, pH 7.4) containing different concentrations of inhibitors or chemicals (0-1,000 μg/ml) at 22° C. for 10 minutes, followed by addition of 0.2 mM of the phosphotyrosine peptide and incubation at 22° C. for 18 hours. 100 μl of Malachite Green solution was added and incubated for 5 minutes, and the absorbance at 660 nm was measured after 5 minutes.

Jak2/Stat5 = assay: IL-3-induced Jak2/Stat5 tyrosine phosphorylation in Baf3 cells; type: cell-based, murine
Method: For induction of cellular protein phosphorylation by sodium stibogluconate or pervanadate, Baf3 cells were incubated in 0.1% FCS-RPMI 1640 medium at 37° C. for 16 hours. The cells were then washed twice in RPMI 1640 medium and incubated with sodium stibogluconate or pervanandate (0.1 mM) for various times prior to termination by lysing cells in cold lysis buffer (50 mM Tris, pH 7.4; 150 mM NaCl; 0.2 mM Na3VO4; 20 mm NaF; 1% Nonidet P-40; 2 mM PMSF; 20 μg/ml of Aprotinin and 1 mM of sodium molybdic acid). To determine the effect of sodium stibogluconate or potassium antimonyl tartrate on IL-3-induced Jak/Stat phosphorylation, Baf3 cells were deprived of the growth factor for 16 hours in 0.1% FCS RPMI 1640 medium and then incubated with or without sodium stibogluconate or potassium antimonyl tartrate for 10 minutes. IL-3 was next added to the cell suspension and incubated for various times. The Cells were then harvested and lysed in cold lysis buffer at 4° C. for 45 minutes. Total cell lysates (TCL) were separated in SDS-PAGE gels, blotted onto nitrocellulose membrane (Schleicher & Schuell), probed with specific antibodies and detected using an enhanced chemiluminescence kit (ECL, Amersham, Arlington Heights, Ill.).

MKP1 = biological target: T4, MKP1 (Homo sapiens, UniProt P28562); assay: In vitro PTPase assay, GST/MKP1 fusion protein; type: biochemical
T4 construct: a pGEX construct containing the coding region of MKP1 cDNA derived by RT-PCR; made in house; host or cells: DH5a bacteria (E. coli)
T4 sequence (P28562 1-367): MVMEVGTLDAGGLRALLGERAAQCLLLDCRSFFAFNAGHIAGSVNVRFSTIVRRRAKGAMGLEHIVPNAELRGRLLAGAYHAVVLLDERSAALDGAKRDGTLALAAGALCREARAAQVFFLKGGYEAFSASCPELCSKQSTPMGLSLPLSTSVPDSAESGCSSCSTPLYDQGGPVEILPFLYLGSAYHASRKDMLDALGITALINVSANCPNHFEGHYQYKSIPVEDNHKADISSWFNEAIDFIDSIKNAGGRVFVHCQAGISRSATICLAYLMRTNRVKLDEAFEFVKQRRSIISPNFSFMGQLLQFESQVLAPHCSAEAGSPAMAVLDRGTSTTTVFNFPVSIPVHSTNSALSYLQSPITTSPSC

GSTm8 = assay: In vitro PTPase assay, GSTm8; type: biochemical; conditions: 3-4 μg/ml or 10-100 μg/ml

T2 sequence (P29351 whole entry, the tested form may be a part): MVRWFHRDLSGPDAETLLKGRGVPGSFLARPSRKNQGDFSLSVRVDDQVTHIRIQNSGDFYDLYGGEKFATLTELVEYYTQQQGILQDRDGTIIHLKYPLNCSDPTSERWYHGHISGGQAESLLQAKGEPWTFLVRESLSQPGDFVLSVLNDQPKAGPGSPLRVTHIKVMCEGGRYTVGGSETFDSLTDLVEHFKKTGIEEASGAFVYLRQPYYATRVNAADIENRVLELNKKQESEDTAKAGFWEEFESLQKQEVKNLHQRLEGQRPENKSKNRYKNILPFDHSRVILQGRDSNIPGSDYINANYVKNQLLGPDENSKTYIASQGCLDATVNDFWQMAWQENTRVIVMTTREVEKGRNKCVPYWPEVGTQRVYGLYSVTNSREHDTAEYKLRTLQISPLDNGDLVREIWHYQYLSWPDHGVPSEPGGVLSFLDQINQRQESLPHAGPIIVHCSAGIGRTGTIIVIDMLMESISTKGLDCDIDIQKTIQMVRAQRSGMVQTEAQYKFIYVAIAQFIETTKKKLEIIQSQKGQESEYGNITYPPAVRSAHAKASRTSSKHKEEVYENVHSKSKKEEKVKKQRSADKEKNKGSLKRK
T1 sequence (O75365 whole entry): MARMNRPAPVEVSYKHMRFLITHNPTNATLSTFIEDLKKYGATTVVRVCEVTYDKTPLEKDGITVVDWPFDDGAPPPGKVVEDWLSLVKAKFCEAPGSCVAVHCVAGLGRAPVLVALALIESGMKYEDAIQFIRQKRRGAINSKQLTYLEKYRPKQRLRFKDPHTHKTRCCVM
T3 sequence (P18031 whole entry, species assumed, the tested form may be a part): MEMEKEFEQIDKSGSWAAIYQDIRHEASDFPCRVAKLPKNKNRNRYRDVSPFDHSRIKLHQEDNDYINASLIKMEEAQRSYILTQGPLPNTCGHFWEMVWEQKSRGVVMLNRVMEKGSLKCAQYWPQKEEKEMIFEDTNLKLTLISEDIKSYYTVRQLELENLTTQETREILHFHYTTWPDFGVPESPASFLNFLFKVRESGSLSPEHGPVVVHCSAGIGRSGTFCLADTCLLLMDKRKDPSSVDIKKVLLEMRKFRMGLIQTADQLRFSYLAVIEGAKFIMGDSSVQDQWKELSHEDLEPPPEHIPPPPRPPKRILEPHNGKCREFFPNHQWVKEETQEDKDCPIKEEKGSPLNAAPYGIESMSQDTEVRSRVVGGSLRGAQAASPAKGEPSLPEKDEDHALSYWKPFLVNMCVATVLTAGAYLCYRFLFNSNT

## [Na+].[Na+].[Na+].[O]=[V]([O-])([O-])[O-] [sodium orthovanadate]
PRL-3
  inhibition of PRL-3 with DiFMUP substrate: less effective

## O.O.O.O=C([O-])[C@H]([O-])[C@@H]([O-])C(=O)[O-].O=C([O-])[C@H]([O-])[C@@H]([O-])C(=O)[O-].[K+].[K+].[Sb+3].[Sb+3] [potassium antimonyl tartrate]
SHP-1; 1-1,000 μg/ml
  inhibition of SHP-1: no detectable inhibition
Baf3 cells
  toxicity against Baf3 cells: marked toxicity
Baf3 cells; IL-3 10 units/ml, three days
  IL-3-induced proliferation of Baf3 cells: failed to enhance
PTP1B
  inhibition of PTP1B: no detectable inhibition
Jak2/Stat5
  IL-3-induced Stat5 phosphorylation: failed to enhance

## c1ccc([C@H]2CN3CCSC3=N2)cc1 [levamisole]
SHP-1; 3-4 μg/ml or 10-100 μg/ml
  inhibitory activity against SHP-1: no obvious inhibitory activity
MKP1
  inhibition of MKP1: substantial inhibition
GSTm8
  inhibitory activity against GSTm8: no obvious inhibitory activity

## Cc1ccc(C(=O)Nc2ccc(S(=O)(=O)O)c3cc(S(=O)(=O)O)cc(S(=O)(=O)O)c23)cc1NC(=O)c1cccc(NC(=O)Nc2cccc(C(=O)Nc3cc(C(=O)Nc4ccc(S(=O)(=O)O)c5cc(S(=O)(=O)O)cc(S(=O)(=O)O)c45)ccc3C)c2)c1 [Suramin]
SHP-1; comparable conditions
  inhibition of SHP-1 compared with sodium stibogluconate: less effective
SHP-1; pre-incubated at 4° C. 30 minutes, beads washed 3 times
  reversibility of SHP-1 inhibition by washing: almost completely removed by the washing process
PRL-3
  inhibition of PRL-3 with DiFMUP substrate: less effective
